The test system of the test is NHEKs. Description: Anti-oxidant activity: ROS production (DCFH probe) under TBP stress. The class given is cell-based, human. The note with it: TBP 5 mM; positive control at 200 μM, 24 h pre-incubation. The procedure:
NHEKs were seeded in a black plate with a glass bottom at 20′000 cells per well pre-coated with type I collagen. Cells were incubated at 37° C. with 5% CO2 for 24 h. On the next day, the cells were incubated for 24 h with the patchouli extracts and some of the fractions thereof described in examples 1 and 2 above, each at 0.5% (v/v), or Resveratrol (positive control) at 200 μM. After this pre-incubation, the cells were incubated with dichloro-dihydro-fluorescein (DCFH) probe at 50 μM for 30-45 min. The cells were then rinsed two times with PBS and incubated with PBS alone or with PBS containing 5 mM tert-butyl peroxide (TBP) to induce an oxidative stress. Fluorescence reading was performed every 10 min for 1 h, exciting at 488 nm and emitting at 525 nm.

Turning to `Oc1ccc(C=Cc2cc(O)cc(O)c2)cc1` [Resveratrol], the “ROS Production [% of TBP, untreated] Average” value is 18 % of TBP, untreated.

Values taken from patent US20240000700A1, “PLANT EXTRACTING METHOD” (GIVAUDAN SA, priority 2020, published 2024).
